By IC50 is commonly meant the concentration at which inhibition is half-maximal. High values mean weaker potency, low ones greater potency. As usually defined, the inhibition is the change of the read-out against control, counted positive when it falls.

In the first experiment the target is T1, human TREK-1 (Homo sapiens, UniProt O95069).
T1 construct: expressed in transfected cells
T1 sequence (O95069 1-426): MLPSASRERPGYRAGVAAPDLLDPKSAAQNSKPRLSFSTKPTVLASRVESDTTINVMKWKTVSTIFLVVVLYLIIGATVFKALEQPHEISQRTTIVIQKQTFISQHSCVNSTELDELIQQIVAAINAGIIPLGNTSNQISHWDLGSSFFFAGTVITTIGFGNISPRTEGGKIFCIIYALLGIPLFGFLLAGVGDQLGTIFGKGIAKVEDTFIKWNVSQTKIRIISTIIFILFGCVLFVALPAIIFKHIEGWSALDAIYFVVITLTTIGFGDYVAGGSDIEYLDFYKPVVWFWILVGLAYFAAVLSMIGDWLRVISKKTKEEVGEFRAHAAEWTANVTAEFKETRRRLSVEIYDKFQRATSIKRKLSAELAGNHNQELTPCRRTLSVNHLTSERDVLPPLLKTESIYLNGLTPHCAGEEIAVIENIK
Nature of the experiment: TREK-1 Thallium (Tl+) flux assay, Method 1. Format: cell-based. The note with it: TREK-1 Thallium (Tl+) flux assay, Method 1. The gist of the method: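 Readout: Thallos fluorescence ratio, taken 25 s post-thallium relative to the pre-thallium baseline average, then converted to % inhibition. Cells were CHO-K1 stably expressing human TREK-1, dye-loaded and exposed to test compound (vehicle 0.3% DMSO) for 10 min prior to thallium stimulation.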
Turning to `Cc1cc(OCc2ccccc2)ccc1NC(=O)c1c(Cl)cnn1CC1CN(C(=O)C2CC2)CCO1` (centres unmarked) [Compound 432, N-(4-(benzyloxy)-2-methylphenyl)-4-chloro-1-((4-(cyclopropanecarbonyl)morpholin-2-yl)methyl)-1H-pyrazole-5-carboxamide], the IC50 worked out at 6450 nM.

`COc1ccc(-c2cnc(NC(=O)c3c(Cl)cnn3C3CCN(C(=O)OC(C)(C)C)CC3)c(C)c2)c(C)c1` [Compound 403, tert-butyl 4-(4-chloro-5-((5-(4-methoxy-2-methylphenyl)-3-methylpyridin-2-yl)carbamoyl)-1H-pyrazol-1-yl)piperidine-1-carboxylate] had an IC50 of 2290 nM.

As to `COc1cc(-c2cnc(NC(=O)c3c(Cl)cnn3C3CCN(C(=O)OC(C)(C)C)CC3)c(C)c2)ccn1` [Compound 437, tert-butyl 4-(4-chloro-5-((2′-methoxy-5-methyl-[3,4′-bipyridin]-6-yl)carbamoyl)-1H-pyrazol-1-yl)piperidine-1-carboxylate], it took 9960 nM to reach half-maximal inhibition (IC50).

The same experiment, now with this note: TREK-1 Thallium (Tl+) flux assay; no *^12 (Method 2) mark on these rows.
Molecule `Cc1cc(C#Cc2ccc(F)cc2)cnc1NC(=O)c1c(Cl)cnn1CC1(C#N)CCN(C(=O)OC(C)(C)C)CC1` [Compound 269, tert-butyl 4-((4-chloro-5-((5-((4-fluorophenyl)ethynyl)-3-methylpyridin-2-yl)carbamoyl)-1H-pyrazol-1-yl)methyl)-4-cyanopiperidine-1-carboxylate] registered an IC50 of 450 nM.

With `Cc1cc(C#Cc2ccc(F)cc2)cnc1NC(=O)c1c(Cl)nn(C)c1-c1ccc2c(cnn2C)c1` [Compound 342, 3-chloro-N-(5-((4-fluorophenyl)ethynyl)-3-methylpyridin-2-yl)-1-methyl-5-(1-methyl-1H-indazol-5-yl)-1H-pyrazole-4-carboxamide], the IC50 was 750 nM.

`Cc1cc(C#Cc2cccs2)cnc1NC(=O)c1c(Cl)cnn1[C@H]1C[C@@H]2CN(C(=O)C3CC3)C[C@@H]2C1` [Compound 204, 4-chloro-1-[(3aR,5s,6aS)-2-(cyclopropanecarbonyl)octahydrocyclo-penta[c]pyrrol-5-yl]-N-{3-methyl-5-[(thiophen-2-yl)ethynyl]pyridin-2-yl}-1H-pyrazole-5-carboxamide]: half-maximal inhibition (IC50) required 310 nM.

For the molecule `CC(C)(C)OC(=O)N1CCC(n2ncc(Cl)c2C(=O)Nc2ncc(C#Cc3ccccc3)cc2F)CC1` [Compound 255, tert-butyl 4-(4-chloro-5-((3-fluoro-5-(phenylethynyl)pyridin-2-yl)carbamoyl)-1H-pyrazol-1-yl)piperidine-1-carboxylate], the IC50 came out at 420 nM.

`Cc1cc(C#Cc2ccccc2)cnc1NC(=O)c1c(Cl)cnn1CC1COCC1C` (centres unmarked) [Compound 281, 4-chloro-N-(3-methyl-5-(phenylethynyl)pyridin-2-yl)-1-((4-methyltetrahydrofuran-3-yl)methyl)-1H-pyrazole-5-carboxamide] registered an IC50 of 490 nM.

For `Cc1cc(OCc2ccccc2)ccc1NC(=O)c1c(Cl)cnn1[C@H]1CC[C@@H](NC(=O)C2COCCO2)CC1` (stereo partly drawn) [Compound 380, 1-(cis-4-(1,4-dioxane-2-carboxamido)cyclohexyl)-N-(4-(benzyloxy)-2-methylphenyl)-4-chloro-1H-pyrazole-5-carboxamide], it took 380 nM to reach half-maximal inhibition (IC50).

`CC1CN(C(=O)OC(C)(C)C)CCC1Cn1ncc(Cl)c1C(=O)Nc1ncc(C#Cc2ccccc2)cc1F` (centres unmarked) [Compound 318, tert-butyl 4-((4-chloro-5-((3-fluoro-5-(phenylethynyl)pyridin-2-yl)carbamoyl)-1H-pyrazol-1-yl)methyl)-3-methylpiperidine-1-carboxylate] returned an IC50 of 610 nM.

Turning to `Cc1cc(C#Cc2ccccc2)cnc1NC(=O)c1c(Cl)cnn1C1CCCC(NC(=O)OC(C)(C)C)C1` (centres unmarked) [Compound 358, tert-butyl (3-(4-chloro-5-((3-methyl-5-(phenylethynyl)pyridin-2-yl)carbamoyl)-1H-pyrazol-1-yl)cyclohexyl)carbamate], half-maximal inhibition (IC50) required 880 nM.

`Cc1cc(C#Cc2ccc(F)cc2)cnc1NC(=O)c1c(Cl)cnn1C1CCN(C(=O)C2COCCO2)C1` (centres unmarked) [Compound 230, 1-(1-(1,4-dioxane-2-carbonyl)pyrrolidin-3-yl)-4-chloro-N-(5-((4-fluorophenyl)ethynyl)-3-methylpyridin-2-yl)-1H-pyrazole-5-carboxamide] showed an IC50 of 350 nM.

In turn, “tert-butyl 4-(4-chloro-5-((3-fluoro-5-(phenylethynyl)pyridin-2-yl)carbamoyl)-1H-pyrazol-1-yl)-2-methylpiperidine-1-caboxylate [Compound 324]” returned an IC50 of 640 nM.

`Cc1cc(C#Cc2ccccc2)cnc1NC(=O)c1c(Cl)cnn1CC1CCC(C)(C)O1` (centres unmarked) [Compound 371, 4-chloro-1-((5,5-dimethyltetrahydrofuran-2-yl)methyl)-N-(3-methyl-5-(phenylethynyl)pyridin-2-yl)-1H-pyrazole-5-carboxamide] had an IC50 of 1000 nM.

`CC(C)(C)OC(=O)N1CCCC(Cn2ncc(Cl)c2C(=O)Nc2ncc(C#Cc3ccccc3)cc2F)C1` (centres unmarked) [Compound 365, tert-butyl 3-((4-chloro-5-((3-fluoro-5-(phenylethynyl)pyridin-2-yl)carbamoyl)-1H-pyrazol-1-yl)methyl)piperidine-1-carboxylate] showed an IC50 of 920 nM.

Take `O=C(Nc1c(F)cc(C#Cc2ccccc2)cc1F)c1c(Cl)cnn1C[C@H]1COCCO1` [Compound 252, (S)-1-((1,4-dioxan-2-yl)methyl)-4-chloro-N-(2,6-difluoro-4-(phenylethynyl)phenyl)-1H-pyrazole-5-carboxamide]: the IC50 stood at 410 nM.

Regarding `Cc1cc(C#Cc2cccc(F)c2)cnc1NC(=O)c1c(Cl)cnn1CC1CCN(C(=O)C(C)C)CC1` [Compound 249, 4-chloro-N-(5-((3-fluorophenyl)ethynyl)-3-methylpyridin-2-yl)-1-((1-isobutyrylpiperidin-4-yl)methyl)-1H-pyrazole-5-carboxamide], it took 400 nM to reach half-maximal inhibition (IC50).

The experiment is the same for the next values; noted with them: TREK-1 Thallium (Tl+) flux assay; values without footnote *12 are Method 1.
`O=C(Nc1ncc(C#Cc2cccs2)cc1F)c1c(Cl)cnn1C1CCN(C(=O)C2COCCO2)CC1` (centres unmarked) [Compound 95, 1-(1-(1,4-dioxane-2-carbonyl)piperidin-4-yl)-4-chloro-N-(3-fluoro-5-(thiophen-2-ylethynyl)pyridin-2-yl)-1H-pyrazole-5-carboxamide]: the IC50 stood at 180 nM.

The molecule `Cc1cc(C#Cc2ccc(F)cc2)cnc1NC(=O)c1c(Cl)cnn1C1CC2(C1)CN(C(=O)C(C)C)C2` [Compound 116, 4-chloro-N-(5-((4-fluorophenyl)ethynyl)-3-methylpyridin-2-yl)-1-(2-isobutyryl-2-azaspiro[3.3]heptan-6-yl)-1H-pyrazole-5-carboxamide] had a concentration for half-maximal inhibition (IC50) of 200 nM.

`CC(=O)N1C[C@H]2C[C@H](n3ncc(Cl)c3C(=O)Nc3ncc(C#Cc4cccs4)cc3C)C[C@H]2C1` [Compound 110, 1-[(3aR,5s,6aS)-2-acetyloctahydrocyclopenta[c]pyrrol-5-yl]-4-chloro-N-{3-methyl-5-[(thiophen-2-yl)ethynyl]pyridin-2-yl}-1H-pyrazole-5-carboxamide]: the IC50 was determined as 200 nM.

Take `CC(C)C(=O)N1CC2(CC(n3ncc(Cl)c3C(=O)Nc3ncc(C#Cc4ccccc4)cc3F)C2)C1` [Compound 182, 4-chloro-N-(3-fluoro-5-(phenylethynyl)pyridin-2-yl)-1-(2-isobutyryl-2-azaspiro[3.3]heptan-6-yl)-1H-pyrazole-5-carboxamide]: the IC50 was 280 nM.

In turn, `CC(=O)N1CCC(C#N)(Cn2ncc(Cl)c2C(=O)Nc2ncc(C#Cc3ccccc3)cc2C)CC1` [Compound 84, 1-((1-acetyl-4-cyanopiperidin-4-yl)methyl)-4-chloro-N-(3-methyl-5-(phenylethynyl)pyridin-2-yl)-1H-pyrazole-5-carboxamide] came in with an IC50 of 160 nM.

Take `CC(=O)N1CCC(n2ncc(Cl)c2C(=O)Nc2ncc(C#Cc3ccccc3F)cc2C)C(F)C1` (stereo in doubt) [Compound 159, 1-((3R,4R)-1-acetyl-3-fluoropiperidin-4-yl)-4-chloro-N-(5-((2-fluorophenyl)ethynyl)-3-methylpyridin-2-yl)-1H-pyrazole-5-carboxamide]: the half-inhibitory concentration (IC50) came out at 250 nM.

As for `CC(=O)N1CC[C@H](n2ncc(Cl)c2C(=O)Nc2ncc(C#Cc3ccccc3)cc2F)C1` [Compound 129, (S)-1-(1-acetylpyrrolidin-3-yl)-4-chloro-N-(3-fluoro-5-(phenylethynyl)pyridin-2-yl)-1H-pyrazole-5-carboxamide], it took 220 nM to reach half-maximal inhibition (IC50).

As for `CCNC(=O)N1CCC(n2ncc(Cl)c2C(=O)Nc2ncc(C#Cc3cccc(F)c3)cc2C)CC1` [Compound 75, 4-(4-chloro-5-((5-((3-fluorophenyl)ethynyl)-3-methylpyridin-2-yl)carbamoyl)-1H-pyrazol-1-yl)-N-ethylpiperidine-1-carboxamide], the half-inhibitory concentration (IC50) was determined as 160 nM.

Still in this experiment, the particulars now being: read-out: Tl^+ Assay % inhibition at 30 uM (Minus value indicates activation of TREK-1); at 30 uM; CHO-K1 cells stably expressing human TREK-1; minus = activation.
`Cc1cc(C#Cc2ccccc2)cnc1NC(=O)c1nn(C2CCOCC2)cc1Cl` [Compound 443, 4-chloro-N-(3-methyl-5-(phenylethynyl)pyridin-2-yl)-1-(tetrahydro-2H-pyran-4-yl)-1H-pyrazole-3-carboxamide]: the inhibition at 30 µM is -116%.
